Measured values from the supplement of paper PMC6045584.
± gives the standard deviation of the averaged measurements.

Assays:
[1] = compound: C[C@]12CC[C@H](O)CC1=CC[C@@H]1[C@@H]2CC[C@]2(C)C(c3cccnc3)=CC[C@@H]12 [ABIRATERONE]; assay: surviving fraction relative to DMSO-only wells; higher = less growth inhibition; settings: exposure time: 5 days
Procedure, shortened: (§1)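 Continuous five-day exposure to inhibitors at 0.5, 1, 5, 10, 50, 100, 500 and 1000 nM started 24 hours after log-phase tumour cell lines were seeded at 250–500 cells per well in 384-well plates. Luminescence was read after 10 minutes at room temperature. Viability is given as surviving fraction, meaning CellTiter-Glo luminescence normalised to the median of DMSO-only wells.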

[2] = compound: CN1CCN(c2nc(C3=C(c4c[nH]c5ccccc45)C(=O)NC3=O)c3ccccc3n2)CC1 [SOTRASTAURIN/AEB071]; assay: as above; settings: exposure time: 5 days
Procedure, shortened: as §1

Row | Test System | surviving fraction ([1]; 0.5 nM) | surviving fraction ([1]; 1 nM) | surviving fraction ([1]; 5 nM) | surviving fraction ([1]; 10 nM) | surviving fraction ([1]; 50 nM) | surviving fraction ([1]; 100 nM) | surviving fraction ([1]; 500 nM) | surviving fraction ([1]; 1000 nM) | surviving fraction ([2]; 0.5 nM) | surviving fraction ([2]; 1 nM) | surviving fraction ([2]; 5 nM) | surviving fraction ([2]; 10 nM) | surviving fraction ([2]; 50 nM) | surviving fraction ([2]; 100 nM) | surviving fraction ([2]; 500 nM) | surviving fraction ([2]; 1000 nM)
1 | SG43 HEADNECK | 1.23 ± 0.2 | 1.1 ± 0.39 | 0.922 ± 0.036 | 0.934 ± 0.21 | 1.02 ± 0.51 | 0.995 ± 0.12 | 0.967 ± 0.13 | 0.987 ± 0.2 | 1.21 ± 0.12 | 0.963 ± 0.1 | 0.92 ± 0.087 | 0.761 ± 0.09 | 0.961 ± 0.15 | 1.14 ± 0.21 | 1.31 ± 0.11 | 1.15 ± 0.088
2 | SIHA CERVIX | 1.16 ± 0.013 | 1.15 ± 0.016 | 1.18 ± 0.11 | 1.12 ± 0.086 | 1.18 ± 0.064 | 1.22 ± 0.046 | 1.27 ± 0.06 | 1.16 ± 0.056 | 0.988 ± 0.039 | 1 ± 0.12 | 1.12 ± 0.041 | 1.06 ± 0.1 | 0.935 ± 0.055 | 0.989 ± 0.0056 | 0.944 ± 0.048 | 0.849 ± 0.05
3 | SJSA1 BONE | 1.04 ± 0.051 | 1.09 ± 0.086 | 1.13 ± 0.032 | 1.1 ± 0.026 | 1.11 ± 0.037 | 1.15 ± 0.031 | 1.1 ± 0.015 | 1.04 ± 0.073 | 1.72 ± 0.087 | 1.64 ± 0.046 | 1.64 ± 0.092 | 1.56 ± 0.13 | 0.992 ± 0.068 | 1.13 ± 0.029 | 1.7 ± 0.041 | 0.205 ± 0.018
4 | SKBR3 BREAST | 0.995 ± 0.11 | 1.07 ± 0.073 | 1.2 ± 0.17 | 0.924 ± 0.1 | 1.11 ± 0.18 | 1.14 ± 0.068 | 1.08 ± 0.1 | 0.918 ± 0.18 | 1.12 ± 0.05 | 0.9717 ± 0.0031 | 1 ± 0.068 | 1.07 ± 0.15 | 0.782 ± 0.085 | 0.84 ± 0.11 | 0.818 ± 0.086 | 0.849 ± 0.12
5 | SNU475 LIVER | 1.03 ± 0.024 | 1.07 ± 0.035 | 1.05 ± 0.035 | 1.06 ± 0.045 | 1.02 ± 0.03 | 1.02 ± 0.071 | 1 ± 0.085 | 1.04 ± 0.016 | 0.996 ± 0.06 | 1.04 ± 0.055 | 1.01 ± 0.042 | 1.03 ± 0.034 | 0.9037 ± 0.0085 | 0.873 ± 0.029 | 0.932 ± 0.04 | 0.908 ± 0.046
6 | SUM44 BREAST | 0.949 ± 0.017 | 0.962 ± 0.057 | 1.02 ± 0.037 | 0.991 ± 0.045 | 1.06 ± 0.034 | 1.12 ± 0.07 | 1.1 ± 0.047 | 1.03 ± 0.031 | 1.03 ± 0.23 | 1.04 ± 0.21 | 1.13 ± 0.2 | 1.03 ± 0.19 | 0.895 ± 0.057 | 0.962 ± 0.054 | 1.02 ± 0.1 | 1.03 ± 0.092
7 | SUM149 BREAST | 1.05 ± 0.046 | 1.006 ± 0.01 | 1.07 ± 0.014 | 1.04 ± 0.038 | 0.947 ± 0.085 | 0.872 ± 0.1 | 0.902 ± 0.069 | 0.892 ± 0.071 | 0.923 ± 0.17 | 0.901 ± 0.054 | 0.892 ± 0.11 | 0.896 ± 0.088 | 0.932 ± 0.1 | 0.851 ± 0.025 | 0.893 ± 0.062 | 0.882 ± 0.031
8 | SUM149.B1*.S BREAST | 1.11 ± 0.055 | 1.11 ± 0.047 | 1.2 ± 0.05 | 1.12 ± 0.071 | 1.21 ± 0.062 | 1.21 ± 0.074 | 1.19 ± 0.028 | 1.2 ± 0.078 | 1.11 ± 0.028 | 1.08 ± 0.06 | 1.06 ± 0.093 | 1.07 ± 0.061 | 1.11 ± 0.059 | 1.04 ± 0.024 | 1.04 ± 0.1 | 1.03 ± 0.042
